Laboratory results published in ChEMBL document CHEMBL1201862, “PubChem BioAssay data set” (2004).
The source made the active and inactive calls. Rule as the data show it, for most assays here: actives have a measured EC50 and inactives only a lower limit.

How the values were obtained:
Cytochrome P450 2D6 = Cytochrome P450 2D6 (Homo sapiens, UniProt P10635);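 also: CYP2D6 member of a cytochrome P450 panel assay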
Streptococcus = assay: Group A Streptococcus viability loss, dose response, counter-screen for streptokinase expression inhibitor project, luminescence, BacTiterGlo (AID 1915); format: functional, organism-based;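 also: potency for reduction of bacterial viability or growth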
[1] = test system: Streptococcus sp. 'group A'; assay: growth inhibition of control SK(-) GAS strain, dose response, counter-screen for streptokinase expression inhibitor project, luminescence, kanamycin, BacTiterGlo, confirmation (AID 1900); format: functional, organism-based
Streptokinase A = biological target: T1, Streptokinase A (Streptococcus pyogenes serotype M1, UniProt P10520); assay: S. pyogenes streptokinase expression inhibitors, potency, dose response, plasminogen activation absorbance, OD405 (AID 1914); format: functional, Streptococcus pyogenes M1 GAS;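 also: secreted streptokinase activity via plasminogen activation per viability signal from cell pellet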
T1 sequence (P10520 whole entry): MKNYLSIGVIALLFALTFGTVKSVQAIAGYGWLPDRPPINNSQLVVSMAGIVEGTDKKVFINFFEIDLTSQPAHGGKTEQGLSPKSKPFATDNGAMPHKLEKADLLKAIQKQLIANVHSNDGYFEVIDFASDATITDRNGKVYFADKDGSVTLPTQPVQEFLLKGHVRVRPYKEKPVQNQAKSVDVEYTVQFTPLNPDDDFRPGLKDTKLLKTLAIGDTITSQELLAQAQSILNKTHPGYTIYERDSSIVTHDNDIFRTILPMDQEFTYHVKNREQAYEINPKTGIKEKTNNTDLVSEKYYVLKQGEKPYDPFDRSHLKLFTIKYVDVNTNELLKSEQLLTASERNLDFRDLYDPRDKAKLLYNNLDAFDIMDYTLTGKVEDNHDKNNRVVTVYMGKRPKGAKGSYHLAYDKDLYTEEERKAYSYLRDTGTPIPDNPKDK

Cytochrome P450 2C9 = Cytochrome P450 2C9 (Homo sapiens, UniProt P11712)
Cytochrome P450 2C9, sequence (P11712 whole entry): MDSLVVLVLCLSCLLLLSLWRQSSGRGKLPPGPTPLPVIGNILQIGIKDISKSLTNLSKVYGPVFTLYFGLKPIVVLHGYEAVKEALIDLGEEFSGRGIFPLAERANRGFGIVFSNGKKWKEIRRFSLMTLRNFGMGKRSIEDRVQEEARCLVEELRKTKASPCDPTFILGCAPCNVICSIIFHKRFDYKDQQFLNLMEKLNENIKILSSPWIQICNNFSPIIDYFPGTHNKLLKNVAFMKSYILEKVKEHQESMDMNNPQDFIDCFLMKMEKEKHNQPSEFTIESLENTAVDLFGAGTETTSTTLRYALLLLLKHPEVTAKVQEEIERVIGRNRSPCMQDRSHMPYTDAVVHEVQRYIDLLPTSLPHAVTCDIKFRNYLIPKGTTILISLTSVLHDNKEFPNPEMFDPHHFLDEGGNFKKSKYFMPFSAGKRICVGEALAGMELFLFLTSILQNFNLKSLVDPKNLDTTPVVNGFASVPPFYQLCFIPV

[2] = inhibitors of intracellular T. cruzi replication, confirmation, NIH3T3 host cells, beta-gal luminescence (AID 2044); format: functional, cell-based;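 also: intracellular parasites grown in NIH/3T3 mouse fibroblasts as host cells; luminescent beta-galactosidase reporter signal from transgenic T. cruzi replicating inside host cells; inhibitors lower the luminescence signal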
[3] = cytotoxicity toward NIH3T3 fibroblasts, dose response, counter-screen, cell-based, ATP luminescence, mouse fibroblasts (AID 2010); format: functional;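 also: cells exposed to compound for about 90 hours before reading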
Cytochrome P450 3A4 = Cytochrome P450 3A4 (Homo sapiens, UniProt P08684);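 also: CYP3A4 tested as one member of a cytochrome P450 panel screen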
Cytochrome P450 3A4, sequence (P08684 whole entry): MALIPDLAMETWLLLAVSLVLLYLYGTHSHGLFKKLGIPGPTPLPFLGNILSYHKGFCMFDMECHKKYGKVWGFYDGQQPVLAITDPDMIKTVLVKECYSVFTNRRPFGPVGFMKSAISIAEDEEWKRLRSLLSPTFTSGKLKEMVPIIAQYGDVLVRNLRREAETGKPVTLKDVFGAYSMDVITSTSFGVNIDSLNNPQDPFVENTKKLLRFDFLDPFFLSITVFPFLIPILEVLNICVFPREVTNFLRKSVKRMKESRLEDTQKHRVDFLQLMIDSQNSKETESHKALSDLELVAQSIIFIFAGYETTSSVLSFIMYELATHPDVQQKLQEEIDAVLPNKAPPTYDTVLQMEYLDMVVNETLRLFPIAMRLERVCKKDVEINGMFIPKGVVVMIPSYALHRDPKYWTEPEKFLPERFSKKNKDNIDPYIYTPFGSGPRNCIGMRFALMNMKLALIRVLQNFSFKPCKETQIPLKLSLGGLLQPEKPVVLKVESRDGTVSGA

Cytochrome P450 2D6, sequence (P10635 whole entry): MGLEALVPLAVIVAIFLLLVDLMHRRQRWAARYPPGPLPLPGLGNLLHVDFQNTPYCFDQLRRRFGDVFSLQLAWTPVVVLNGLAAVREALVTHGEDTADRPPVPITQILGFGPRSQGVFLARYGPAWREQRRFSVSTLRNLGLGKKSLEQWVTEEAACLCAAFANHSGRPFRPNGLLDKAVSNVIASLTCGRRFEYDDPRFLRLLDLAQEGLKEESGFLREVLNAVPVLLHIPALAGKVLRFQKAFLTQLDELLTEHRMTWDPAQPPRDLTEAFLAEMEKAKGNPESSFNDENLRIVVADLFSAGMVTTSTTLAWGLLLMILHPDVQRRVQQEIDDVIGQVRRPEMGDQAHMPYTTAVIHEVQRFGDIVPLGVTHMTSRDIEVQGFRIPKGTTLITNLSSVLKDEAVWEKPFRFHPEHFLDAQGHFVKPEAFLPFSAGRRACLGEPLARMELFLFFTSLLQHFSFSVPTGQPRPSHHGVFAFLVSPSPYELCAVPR

C/C(=N/NS(=O)(=O)c1ccc(C)cc1)c1cccc(NC(=O)c2cccc(Cl)c2)c1
AC50 (Cytochrome P450 2D6): 4.47 µM (inconclusive)

COc1ccc(C(=O)N2CCC3(CCN(Cc4ccccc4OC)CC3)CC2)cc1
AC50 (Cytochrome P450 2D6): 12.6 µM (inconclusive)

COc1ccccc1N1CC(C(=O)Nc2nnc(SCC(=O)NCC3CCCO3)s2)CC1=O (stereo not drawn)
EC50 (Streptococcus): > 150 µM (not active)
EC50 [1]: > 150 µM (not active)
EC50 (Streptokinase A): > 150 µM (not active)

NC(=O)C1(NC(=O)[C@@H]2CC3(CC(c4cccc(NC(=O)c5cc([N+](=O)[O-])cc([N+](=O)[O-])c5)c4)=NO3)CN2C(=O)c2ccccc2)CC1 (stereo partly drawn)
AC50 (Cytochrome P450 2C9): 11.2 µM (inconclusive)

CCn1cc([N+](=O)[O-])c(C(=O)N2N=C(c3ccc4ccccc4c3)CC2c2cc(Br)ccc2O)n1 (stereo not drawn)
EC50 [2]: 2.19 µM (active)
EC50 [3]: > 60 µM (inconclusive)

CCCCCCCNC(=O)C1(CC2CC(c3cccc(Br)c3)=NO2)CCN(C(=O)c2ccccc2)CC1 (stereo not drawn)
EC50 [2]: 2.62 µM (active)
EC50 [3]: > 60 µM (not active)

CC(C)c1csc(CN2CCC(CO)(Cc3ccccc3)CC2)n1
EC50 [2]: 0.891 µM (active)
EC50 [3]: > 60 µM (not active)

c1ccc(N2CC[C@@]3(CCCNC3)C2)nc1
AC50 (Cytochrome P450 3A4): 15.8 µM (inconclusive)

CCc1ccc(-c2cc(C)no2)cc1S(=O)(=O)Nc1cccc(CN2CCCC2)c1
EC50 (Streptococcus): > 150 µM (not active)
EC50 [1]: > 150 µM (not active)
EC50 (Streptokinase A): > 150 µM (not active)

CN(C)c1ccc(C2SCCN2C(=O)c2ccc([N+](=O)[O-])cc2)cc1 (stereo not drawn)
EC50 [2]: 0.874 µM (active)
EC50 [3]: > 30 µM (not active)

CCOc1ccc(-n2c(C)cc(/C=N/N(C)C)c2C)cc1
EC50 [2]: 0.843 µM (active)
EC50 [3]: > 30 µM (not active)

COc1ccc(-n2c(S)nnc2-c2cnccn2)cc1
AC50 (Cytochrome P450 3A4): 14.1 µM (inconclusive)

CCOC(=O)c1sc2ncnc(N3CCN(c4ccc(OC)cc4)CC3)c2c1C
EC50 (Streptococcus): > 150 µM (not active)
EC50 [1]: 7.62 µM (active)
EC50 (Streptokinase A): > 150 µM (not active)

COc1ccc(-c2nc(NC(C)=O)sc2-c2ccc(OC)cc2)cc1
EC50 (Streptococcus): 14.6 µM (active)
EC50 [1]: 6.7 µM (active)
EC50 (Streptokinase A): 3.44 µM (active)

CCCOc1ccc(C(=O)NC(=S)N2CCN(c3cc4c(cc3F)c(=O)c(C(=O)O)cn4CC)CC2)cc1
EC50 (Streptococcus): 6.47 µM (active)
EC50 [1]: 4.62 µM (active)

Cc1cccc(C)c1NC(=O)C(NC=O)c1ccccc1Cl (stereo not drawn)
AC50 (Cytochrome P450 2C9): 12.6 µM (inconclusive)

COc1ccc(C(=O)NC(=S)Nc2ccc(N3CCOCC3)c(Cl)c2)cc1[N+](=O)[O-]
EC50 (Streptococcus): 19.3 µM (active)
EC50 [1]: 1.73 µM (active)
EC50 (Streptokinase A): > 150 µM (not active)

CCOC(=O)n1c(=O)n(Cc2c(Cl)cccc2Cl)c2ccccc21
AC50 (Cytochrome P450 3A4): 15.8 µM (inconclusive)

Cc1ccc(CSCC(=O)N2CCN(c3ccc(F)cc3)CC2)cc1
EC50 [2]: 2.18 µM (active)
EC50 [3]: > 60 µM (not active)

CNc1cc(-c2ccccc2C)ncn1
AC50 (Cytochrome P450 2D6): 39.8 µM (inconclusive)

COc1ccccc1CN1CCC2(CC1)CCN(C(=O)c1csnn1)CC2
AC50 (Cytochrome P450 3A4): 31.6 µM (inconclusive)

CS(=O)(=O)N1CCC2(CC1)CN(C(=O)Nc1cccc(C#N)c1)C2
AC50 (Cytochrome P450 3A4): 0.0251 µM (inconclusive)

O=c1cnc2cnc(N3CCOCC3)nc2n1Cc1ccc(F)cc1
AC50 (Cytochrome P450 2C9): 25.1 µM (inconclusive)
AC50 (Cytochrome P450 3A4): 12.6 µM (inconclusive)

CN(C)c1ncc2nc(-c3ccccc3)c(=O)n(C[C@H]3CCCO3)c2n1
AC50 (Cytochrome P450 2C9): 20 µM (inconclusive)
AC50 (Cytochrome P450 3A4): 12.6 µM (inconclusive)
AC50 (Cytochrome P450 2D6): 12.6 µM (inconclusive)

O=C(Nc1cccc(F)c1)N1CC2(CCNCC2)C1
AC50 (Cytochrome P450 2D6): 7.94 µM (inconclusive)

CCCCNC(=O)c1ccc(NC(C)=O)c(Cl)c1
EC50 (Streptococcus): > 150 µM (not active)
EC50 [1]: > 150 µM (not active)
EC50 (Streptokinase A): > 150 µM (not active)

O=C(CCCCn1c(=O)c2ccccc2n(CC(=O)NC2CCCC2)c1=O)NC1CCCC1
AC50 (Cytochrome P450 2D6): 14.1 µM (inconclusive)

COc1cccc(Nc2ncc3ncc(=O)n(C4CC4)c3n2)c1
AC50 (Cytochrome P450 2C9): 15.8 µM (inconclusive)
AC50 (Cytochrome P450 3A4): 6.31 µM (inconclusive)

Cc1ccc(S(=O)(=O)NCc2ccccc2)cc1
AC50 (Cytochrome P450 3A4): 31.6 µM (inconclusive)

CC1CCC(C(C)C)C(OC(=O)C[n+]2cc(-c3ccc(Cl)cc3)n3c2CCC3)C1 (stereo not drawn)
EC50 [2]: 0.144 µM (active)
EC50 [3]: > 60 µM (not active)

COc1cnc(-c2ccccc2)nc1Oc1cccc(C)c1
AC50 (Cytochrome P450 2C9): 39.8 µM (inconclusive)

Cc1ccc(S(=O)(=O)N[C@H]2COC(=O)[C@@H](C)COC(=O)[C@H](C)NC(=O)C/C=C\[C@H]2C)cc1
AC50 (Cytochrome P450 3A4): 3.98 µM (inconclusive)

COc1ccc(C(=O)/C=C2/c3ccccc3CC(C)(C)N2C)cc1
AC50 (Cytochrome P450 2C9): 20 µM (inconclusive)

COC(=O)c1sc(N/N=C/c2ccc(C(C)C)cc2)nc1C
EC50 [2]: 2.06 µM (active)
EC50 [3]: > 60 µM (not active)

COc1ccc([C@@H](Nc2ncccn2)c2cc3c(cc2O)OCO3)cc1
AC50 (Cytochrome P450 2D6): 6.31 µM (inconclusive)

C/C(=N\NC(=O)COc1ccc(C)cc1C(C)C)c1cc2ccccc2o1
EC50 (Streptococcus): 24.1 µM (active)
EC50 [1]: 15.5 µM (active)
EC50 (Streptokinase A): 30.5 µM (active)

COc1ccc2cc3cc(C(=O)NCCN4CCN(c5ccccc5F)CC4)oc3nc2c1
AC50 (Cytochrome P450 2C9): 22.4 µM (inconclusive)
AC50 (Cytochrome P450 2D6): 31.6 µM (inconclusive)

CN1c2ccc([N+](=O)[O-])cc2CC2(C(=O)NC(=O)N(c3ccccc3)C2=O)C1c1ccccc1 (stereo not drawn)
EC50 [2]: 1.94 µM (active)
EC50 [3]: > 60 µM (not active)

COc1cc(C)ccc1OCCCOc1ccccc1Br
AC50 (Cytochrome P450 2C9): 39.8 µM (inconclusive)
EC50 (Streptococcus): > 150 µM (not active)
EC50 [1]: > 150 µM (not active)
EC50 (Streptokinase A): > 150 µM (not active)

O=C(c1ccco1)N1CCC[C@@]2(CCN(Cc3ccncc3)C2)C1
AC50 (Cytochrome P450 3A4): 15.8 µM (inconclusive)

Oc1ccnc2cccc(Cc3ccccc3)c12
AC50 (Cytochrome P450 2C9): 15.8 µM (inconclusive)
AC50 (Cytochrome P450 3A4): 28.2 µM (inconclusive)
AC50 (Cytochrome P450 2D6): 0.00708 µM (inconclusive)

Cc1ccc2ncc([N+](=O)[O-])n2c1
AC50 (Cytochrome P450 2C9): 0.708 µM (inconclusive)

COC(=O)c1cc(-c2ccc(Br)cc2)c2c(=O)[nH]c(=O)n(C)c2n1
EC50 (Streptococcus): 5.63 µM (active)
EC50 [1]: 2.45 µM (active)

O=C1C=C(NC(=O)Nc2ccc(Cl)c(Cl)c2)CCC1
EC50 (Streptococcus): > 150 µM (not active)
EC50 [1]: 18 µM (active)
EC50 (Streptokinase A): > 150 µM (not active)

COc1cc(C=O)ccc1OCCOCCOc1ccccc1Cl
AC50 (Cytochrome P450 2D6): 20 µM (inconclusive)

Cc1sc(NC(=O)Cc2ccc3c(c2)OCO3)nc1-c1ccc2c(c1)CCN2C(=O)c1ccccc1F
EC50 [2]: 1.69 µM (active)
EC50 [3]: > 60 µM (not active)

CC(C)CN1CCC2(CC1)CCN(C(=O)Oc1ccccc1)CC2
AC50 (Cytochrome P450 2D6): 20 µM (inconclusive)

O=C(CC(=O)c1ccncc1)c1ccccc1
AC50 (Cytochrome P450 2C9): 2 µM (inconclusive)
AC50 (Cytochrome P450 2D6): 1.58 µM (inconclusive)

O=c1c([N+](=O)[O-])cc(C(F)(F)F)cn1Cc1c(Cl)cccc1Cl
AC50 (Cytochrome P450 2C9): 22.4 µM (inconclusive)
AC50 (Cytochrome P450 2D6): 25.1 µM (inconclusive)

COc1cc(F)ccc1CN1CCC(n2nccc2NC(=O)C2CCOC2)CC1 (stereo not drawn)
EC50 (Streptococcus): > 150 µM (not active)
EC50 [1]: > 150 µM (not active)
EC50 (Streptokinase A): > 150 µM (not active)

COc1ncc2nc(C)c(=O)n(CCc3ccccc3)c2n1
AC50 (Cytochrome P450 2C9): 20 µM (inconclusive)
AC50 (Cytochrome P450 3A4): 15.8 µM (inconclusive)

O=C1C(O)=C(C(C2=C(O)C(=O)c3ccccc3C2=O)c2ccc(Cl)cc2)C(=O)c2ccccc21
AC50 (Cytochrome P450 2C9): 3.16 µM (inconclusive)
AC50 (Cytochrome P450 3A4): 3.16 µM (inconclusive)
AC50 (Cytochrome P450 2D6): 2.51 µM (inconclusive)

Cc1ccc(Sc2ccc(CN3CCCC3)cc2[N+](=O)[O-])cc1
EC50 [2]: 0.206 µM (active)
EC50 [3]: > 60 µM (not active)

O=S(=O)(N/N=C\C=C\c1ccccc1)c1ccc(Br)cc1
AC50 (Cytochrome P450 2D6): 22.4 µM (inconclusive)

CCCCCCOC(=O)/C=C/c1c(C)nc(O)nc1O
EC50 (Streptococcus): 4.6 µM (active)
EC50 [1]: 0.604 µM (active)
EC50 (Streptokinase A): > 150 µM (not active)

COc1cc(OC)nc(Oc2ccccc2C(=O)Oc2cccc(C)c2)n1
AC50 (Cytochrome P450 3A4): 17.8 µM (inconclusive)

COc1ccccc1CNc1ccc2c(c1)CCC2
EC50 [2]: 2.21 µM (active)
EC50 [3]: > 60 µM (not active)

Cc1ccc(/C(=N\O)c2oc3c(C)c4oc(=O)cc(C)c4cc3c2C)cc1
EC50 [2]: 1.23 µM (active)
EC50 [3]: > 60 µM (not active)
